Values belong to the molecule of their own block, whether it stands above or below them.
Key:
[1] = tested on: Apt-M13 (DNA, aptamer) CGGGGGACGTTGCCAACGGTAACGTCGTTGGAT; experiment: AuNP colorimetric (A650/A520); settings: NaCl 36.7 mM added, water, room temperature
[2] = tested on: Apt1 (DNA, aptamer) ACACGACGAGGGACGAGGAGTACTTGCCAACGATAACGTCGTTGGATCTGTCTGTGCCC; experiment: AuNP colorimetric (A650/A520); settings: NaCl 36.7 mM added, water, room temperature
[3] = tested on: Apt-T2 (DNA, aptamer) CGAGGGACGTTGCCAACGATAACGTCGTTGGAT; experiment: AuNP colorimetric (A650/A520); settings: NaCl 36.7 mM added, water, room temperature
[4] = tested on: Apt-M13 (DNA, aptamer) CGGGGGACGTTGCCAACGGTAACGTCGTTGGAT; experiment: fluorescence enhancement of dye; settings: water, room temperature; aptamer 50 nM stock, 1X SGI
[5] = tested on: Apt-T1 (DNA, aptamer) CGAGGGACGAGGAGTACTTGCCAACGATAACGTCGTTGGAT; experiment: AuNP colorimetric (A650/A520); settings: NaCl 36.7 mM added, water, room temperature
[6] = tested on: Apt-T3 (DNA, aptamer) TTGCCAACGATAACGTCGTTGGAT; experiment: AuNP colorimetric (A650/A520); settings: NaCl 36.7 mM added; water, room temperature; DEX titration
[7] = tested on: Apt-M9 (DNA, aptamer) CGAGGGACGTTGGCAACGGTAACGTCGTTGGAT; experiment: AuNP colorimetric (A650/A520); settings: NaCl 36.7 mM added; water, room temperature; DEX titration
[8] = tested on: Apt-M11 (DNA, aptamer) CGAGGGACGTTGCCAACGGTAAGGTCGTTGGAT; experiment: AuNP colorimetric (A650/A520); settings: NaCl 36.7 mM added; water, room temperature; DEX titration
[9] = tested on: Apt-M12 (DNA, aptamer) CGAGGGACGTTGCCAACGGTAACGTGGTTGGAT; experiment: AuNP colorimetric (A650/A520); settings: NaCl 36.7 mM added; water, room temperature; DEX titration
[10] = tested on: Apt-M15 (DNA, aptamer) CGAGGGACGTTGCCAACGATAAGGTGGTTGGAT; experiment: AuNP colorimetric (A650/A520); settings: NaCl 36.7 mM added; water, room temperature; DEX titration
[11] = tested on: FAM-Apt-M13 (DNA, aptamer) CGGGGGACGTTGCCAACGGTAACGTCGTTGGAT; experiment: graphene oxide fluorescence, saturation fit; settings: water, 37 °C 2 h; aptamer 10-250 nM varied, DEX 1.5 μM fixed; GO:aptamer mass 200:1
[12] = tested on: FAM-Apt1 (DNA, aptamer) ACACGACGAGGGACGAGGAGTACTTGCCAACGATAACGTCGTTGGATCTGTCTGTGCCC; experiment: graphene oxide fluorescence, saturation fit; settings: water, 37 °C 2 h; aptamer 10-250 nM varied, DEX 1.5 μM fixed; GO:aptamer mass 200:1

binding ([1]; 50 nmol/mL analog tested): no
binding ([2]; 100 nmol/mL analog tested): no
binding ([3]; 100 nmol/mL analog tested): no
SMILES: O=C(N[C@H](CO)[C@H](O)c1ccc([N+](=O)[O-])cc1)C(Cl)Cl

binding [4]: yes
SMILES: CCCN(CCCN(C)C)c1cc(C=C2Sc3ccccc3N2C)c2ccccc2[n+]1-c1ccccc1

binding ([1]; 50 nmol/mL analog tested): no
binding ([2]; 100 nmol/mL analog tested): no
binding ([3]; 100 nmol/mL analog tested): no
binding ([5]; 100 nmol/mL): yes
SMILES: CCCC1O[C@@H]2C[C@H]3[C@@H]4CCC5=CC(=O)C=C[C@]5(C)[C@H]4[C@@H](O)C[C@]3(C)[C@]2(C(=O)CO)O1 (stereo partly shown)

binding ([1]; 50 nmol/mL analog tested): no
binding ([2]; 100 nmol/mL analog tested): no
binding ([3]; 100 nmol/mL analog tested): no
SMILES: C[C@]12CCC(=O)C=C1CC[C@@H]1[C@@H]2[C@@H](O)C[C@@]2(C)[C@H]1CC[C@]2(O)C(=O)CO

More lines, now with the values behind:

SMILES: CC(=O)OCC(=O)[C@@]1(O)CC[C@H]2[C@@H]3CCC4=CC(=O)C=C[C@]4(C)[C@H]3C(=O)C[C@@]21C
binding ([1]; 50 nmol/mL analog tested): no
binding ([2]; 100 nmol/mL analog tested): no
binding ([3]; 100 nmol/mL analog tested): no

SMILES: C[C@@H]1C[C@H]2[C@@H]3CCC4=CC(=O)C=C[C@]4(C)[C@@]3(F)[C@@H](O)C[C@]2(C)[C@@]1(O)C(=O)CO
binding ([1]; DEX titration): yes
binding ([2]; DEX titration): yes
binding ([3]; DEX titration): yes
binding ([5]; DEX titration): yes
binding [6]: yes
binding [7]: yes
binding [8]: yes
binding [9]: yes
binding [10]: yes
Kd [11]: 200 ± 93 nM
Kd [12]: 441 ± 180 nM

Reference: article PMC9513367 (2022)
